Data from ChEMBL document CHEMBL1129336, “Ryanodine action at calcium release channels. 2. relation to substituents of the cyclohexane ring” (J Med Chem, 1996).

Each compound was assayed against Ryanodine receptor 2 (Mus musculus) (UniProt E9Q401) (assay: Displacement of [3H]ryanodine from ryanodine receptor(ryr) of Mouse brain).
Sequence of Ryanodine receptor 2 (Mus musculus) (E9Q401 whole entry, looked up): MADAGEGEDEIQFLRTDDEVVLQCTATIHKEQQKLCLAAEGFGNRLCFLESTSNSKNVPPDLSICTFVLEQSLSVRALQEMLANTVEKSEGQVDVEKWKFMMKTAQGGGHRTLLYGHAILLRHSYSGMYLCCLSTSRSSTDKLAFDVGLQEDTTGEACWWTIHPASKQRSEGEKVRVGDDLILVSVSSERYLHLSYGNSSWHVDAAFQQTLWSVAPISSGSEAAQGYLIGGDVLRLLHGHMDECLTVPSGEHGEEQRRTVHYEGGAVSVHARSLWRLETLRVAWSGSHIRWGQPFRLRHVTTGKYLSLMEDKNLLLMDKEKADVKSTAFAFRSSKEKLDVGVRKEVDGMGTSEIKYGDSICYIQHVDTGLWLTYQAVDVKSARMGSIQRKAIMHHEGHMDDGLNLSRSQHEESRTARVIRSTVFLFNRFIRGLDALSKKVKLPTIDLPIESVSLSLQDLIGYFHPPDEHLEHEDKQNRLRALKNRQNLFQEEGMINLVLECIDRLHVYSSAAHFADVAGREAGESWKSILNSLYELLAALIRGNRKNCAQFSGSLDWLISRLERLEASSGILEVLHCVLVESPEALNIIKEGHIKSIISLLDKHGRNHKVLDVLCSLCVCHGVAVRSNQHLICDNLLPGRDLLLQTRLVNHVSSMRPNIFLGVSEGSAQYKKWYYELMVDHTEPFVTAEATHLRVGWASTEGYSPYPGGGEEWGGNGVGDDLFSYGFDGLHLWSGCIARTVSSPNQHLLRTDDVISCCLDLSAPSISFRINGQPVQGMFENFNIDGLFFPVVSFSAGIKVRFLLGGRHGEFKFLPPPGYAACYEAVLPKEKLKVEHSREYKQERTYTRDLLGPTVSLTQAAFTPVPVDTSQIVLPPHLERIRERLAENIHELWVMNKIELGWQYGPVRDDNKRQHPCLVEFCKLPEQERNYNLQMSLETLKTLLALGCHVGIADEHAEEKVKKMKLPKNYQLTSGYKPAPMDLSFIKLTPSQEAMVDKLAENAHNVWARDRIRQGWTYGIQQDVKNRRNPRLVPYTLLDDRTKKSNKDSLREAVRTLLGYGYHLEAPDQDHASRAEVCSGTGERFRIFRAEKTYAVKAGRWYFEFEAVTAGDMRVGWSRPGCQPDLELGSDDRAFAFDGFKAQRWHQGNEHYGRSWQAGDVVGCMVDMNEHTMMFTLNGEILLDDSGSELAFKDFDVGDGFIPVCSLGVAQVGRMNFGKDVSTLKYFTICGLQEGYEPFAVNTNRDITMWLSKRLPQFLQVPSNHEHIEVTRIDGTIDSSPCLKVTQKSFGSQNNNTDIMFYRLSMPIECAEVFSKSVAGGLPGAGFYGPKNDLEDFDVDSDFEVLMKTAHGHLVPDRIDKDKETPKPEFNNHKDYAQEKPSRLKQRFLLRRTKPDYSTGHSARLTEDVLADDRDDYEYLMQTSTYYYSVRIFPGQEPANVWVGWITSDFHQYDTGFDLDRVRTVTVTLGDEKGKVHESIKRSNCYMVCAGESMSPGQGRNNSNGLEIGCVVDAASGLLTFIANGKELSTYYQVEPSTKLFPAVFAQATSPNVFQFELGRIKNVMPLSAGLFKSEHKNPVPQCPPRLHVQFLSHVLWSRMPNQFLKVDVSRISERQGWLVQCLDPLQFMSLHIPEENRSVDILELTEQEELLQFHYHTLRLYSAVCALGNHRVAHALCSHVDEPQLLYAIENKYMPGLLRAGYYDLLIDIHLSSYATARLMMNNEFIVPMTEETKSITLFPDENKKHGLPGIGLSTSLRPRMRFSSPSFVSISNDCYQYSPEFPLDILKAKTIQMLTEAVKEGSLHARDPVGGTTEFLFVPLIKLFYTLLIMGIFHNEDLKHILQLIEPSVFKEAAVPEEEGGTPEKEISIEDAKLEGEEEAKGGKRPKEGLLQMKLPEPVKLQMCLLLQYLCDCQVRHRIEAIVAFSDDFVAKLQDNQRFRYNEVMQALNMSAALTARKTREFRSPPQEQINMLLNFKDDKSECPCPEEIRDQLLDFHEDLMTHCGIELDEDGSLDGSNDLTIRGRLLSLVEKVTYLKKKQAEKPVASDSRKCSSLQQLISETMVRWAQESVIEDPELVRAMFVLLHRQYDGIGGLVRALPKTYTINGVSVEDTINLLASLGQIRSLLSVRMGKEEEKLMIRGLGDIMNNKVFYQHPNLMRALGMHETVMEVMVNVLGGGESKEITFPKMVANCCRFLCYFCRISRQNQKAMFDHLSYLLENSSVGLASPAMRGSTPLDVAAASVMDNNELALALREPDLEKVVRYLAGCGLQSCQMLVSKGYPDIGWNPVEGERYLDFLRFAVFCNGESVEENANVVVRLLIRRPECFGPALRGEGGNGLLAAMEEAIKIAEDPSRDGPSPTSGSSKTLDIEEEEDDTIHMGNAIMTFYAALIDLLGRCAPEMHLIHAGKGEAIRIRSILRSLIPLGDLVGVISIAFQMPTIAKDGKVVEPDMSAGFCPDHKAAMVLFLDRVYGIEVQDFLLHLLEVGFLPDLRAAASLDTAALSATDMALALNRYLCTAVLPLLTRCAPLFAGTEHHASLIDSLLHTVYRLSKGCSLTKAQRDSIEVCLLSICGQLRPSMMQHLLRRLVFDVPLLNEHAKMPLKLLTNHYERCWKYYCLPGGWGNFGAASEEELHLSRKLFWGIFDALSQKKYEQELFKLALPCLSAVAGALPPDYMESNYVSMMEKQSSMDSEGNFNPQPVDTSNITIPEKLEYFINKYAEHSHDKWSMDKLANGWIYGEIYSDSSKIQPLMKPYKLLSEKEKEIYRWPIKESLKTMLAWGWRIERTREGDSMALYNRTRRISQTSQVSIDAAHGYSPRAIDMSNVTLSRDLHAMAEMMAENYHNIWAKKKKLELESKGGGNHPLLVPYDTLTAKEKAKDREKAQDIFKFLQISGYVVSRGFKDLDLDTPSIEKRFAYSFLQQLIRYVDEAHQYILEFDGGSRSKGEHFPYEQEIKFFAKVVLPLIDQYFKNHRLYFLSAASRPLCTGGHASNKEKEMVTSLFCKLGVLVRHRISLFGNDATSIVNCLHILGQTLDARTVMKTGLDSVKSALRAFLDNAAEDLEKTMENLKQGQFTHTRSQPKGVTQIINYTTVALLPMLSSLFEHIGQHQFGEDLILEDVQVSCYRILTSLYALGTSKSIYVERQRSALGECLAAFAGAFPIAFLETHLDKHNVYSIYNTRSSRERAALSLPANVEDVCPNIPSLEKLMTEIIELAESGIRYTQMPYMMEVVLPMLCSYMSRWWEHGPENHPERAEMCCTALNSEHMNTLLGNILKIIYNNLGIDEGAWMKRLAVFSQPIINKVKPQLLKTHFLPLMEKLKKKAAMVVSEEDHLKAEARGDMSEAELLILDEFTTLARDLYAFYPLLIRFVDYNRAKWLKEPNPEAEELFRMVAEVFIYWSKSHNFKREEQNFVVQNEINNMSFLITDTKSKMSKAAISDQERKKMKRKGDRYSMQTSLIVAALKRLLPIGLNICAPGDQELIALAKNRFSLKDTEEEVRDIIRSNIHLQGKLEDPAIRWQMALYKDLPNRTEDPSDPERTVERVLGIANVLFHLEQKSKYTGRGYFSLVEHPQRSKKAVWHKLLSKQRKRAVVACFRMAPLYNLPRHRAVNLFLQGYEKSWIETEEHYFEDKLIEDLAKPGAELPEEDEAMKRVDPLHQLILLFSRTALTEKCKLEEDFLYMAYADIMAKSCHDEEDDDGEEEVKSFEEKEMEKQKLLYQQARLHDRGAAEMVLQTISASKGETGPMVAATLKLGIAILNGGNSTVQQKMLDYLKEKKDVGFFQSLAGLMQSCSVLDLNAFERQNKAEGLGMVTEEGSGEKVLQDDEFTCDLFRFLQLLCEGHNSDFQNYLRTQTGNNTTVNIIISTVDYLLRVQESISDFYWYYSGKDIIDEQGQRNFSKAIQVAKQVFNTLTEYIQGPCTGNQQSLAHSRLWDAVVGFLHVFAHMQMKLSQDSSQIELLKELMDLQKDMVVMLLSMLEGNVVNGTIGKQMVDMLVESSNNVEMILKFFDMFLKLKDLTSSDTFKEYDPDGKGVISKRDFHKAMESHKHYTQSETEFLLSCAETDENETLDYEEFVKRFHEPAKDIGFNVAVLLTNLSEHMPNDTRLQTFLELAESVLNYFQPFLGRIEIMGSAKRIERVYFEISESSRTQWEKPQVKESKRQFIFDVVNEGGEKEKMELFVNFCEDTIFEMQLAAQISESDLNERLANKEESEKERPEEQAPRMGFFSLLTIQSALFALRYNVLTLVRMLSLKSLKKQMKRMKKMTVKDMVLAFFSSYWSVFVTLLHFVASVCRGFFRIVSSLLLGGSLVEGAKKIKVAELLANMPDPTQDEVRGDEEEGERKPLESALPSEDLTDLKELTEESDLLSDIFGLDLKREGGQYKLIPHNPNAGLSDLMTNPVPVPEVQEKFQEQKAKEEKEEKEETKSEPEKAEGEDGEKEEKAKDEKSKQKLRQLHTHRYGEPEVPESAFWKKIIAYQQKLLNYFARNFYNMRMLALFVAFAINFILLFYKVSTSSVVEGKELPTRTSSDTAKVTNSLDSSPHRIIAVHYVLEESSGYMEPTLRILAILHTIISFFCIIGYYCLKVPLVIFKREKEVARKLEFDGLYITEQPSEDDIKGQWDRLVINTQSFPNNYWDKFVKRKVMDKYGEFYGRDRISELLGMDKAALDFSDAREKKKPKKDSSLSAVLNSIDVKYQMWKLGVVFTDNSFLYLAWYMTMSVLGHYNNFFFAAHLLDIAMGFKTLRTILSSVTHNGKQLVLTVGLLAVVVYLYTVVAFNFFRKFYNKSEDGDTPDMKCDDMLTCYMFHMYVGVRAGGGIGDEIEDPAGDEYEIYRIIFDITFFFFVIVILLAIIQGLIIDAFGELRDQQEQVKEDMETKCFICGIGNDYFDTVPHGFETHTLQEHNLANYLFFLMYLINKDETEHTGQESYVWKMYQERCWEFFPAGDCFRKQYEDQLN
With `CC1CCC2(O)C3(C)CC4(O)OC2(C1N)C1(O)C3(O)C(OC(=O)c2ccc[nH]2)C(O)(C(C)C)C41C` (stereo not given) the Relative activity was 65.
`C=C1CCC2(O)C3(C)CC4(O)OC2(C1OC(=O)c1ccccc1)C1(O)C3(O)C(OC(=O)c2ccc[nH]2)C(O)(C(C)C)C41C` (stereo not given) was tested, and the Relative activity was 17.
Work on `CC(C)C1(O)C(OC(=O)c2ccc[nH]2)C2(O)C3(C)CC4(O)OC5(CC(O)CCC35O)C2(O)C41C` (stereo not given) yielded a Relative activity of 0.4.
Work on `CO/N=C1\C(C)CCC2(O)C3(C)CC4(O)OC12C1(O)C3(O)C(OC(=O)c2ccc[nH]2)C(O)(C(C)C)C41C` (stereo not given) yielded a Relative activity of 13.
`CC(C)C1(O)C(OC(=O)c2ccc[nH]2)C2(O)C3(C)CC4(O)OC5(CCCCC35O)C2(O)C41C` (stereo not given) showed a Relative activity of 18.
